# According to ChEMBL document CHEMBL3994568 (2016):
# Activity calls are given as the source filed them. The calls are words filed in the database; no cut-off is given here.
# Assays:
# Micrococcus luteus = test: Antibacterial activity against Micrococcus luteus ATCC 4698 after 24 hrs by two-fold microbroth dilution method; assay type: functional; conditions: NCTC 2665, 24 h
# Bacillus spizizenii = test: Antibacterial activity against Bacillus subtilis ATCC 6633 after 24 hrs by two-fold microbroth dilution method; assay type: functional; conditions: ATCC 6633, 24 h
# Cyberlindnera jadinii = test: Antifungal activity against Candida utilis ATCC 9950 after 24 hrs by two-fold microbroth dilution method; assay type: functional; conditions: Williopsis jadinii, ATCC 9950, 24 h
# Staphylococcus aureus [1] = test: Antibacterial activity against Staphylococcus aureus ATCC 25923 after 24 hrs by two-fold microbroth dilution method; assay type: functional; conditions: ATCC 25923, 24 h
# Bos taurus [2] = species: Bos taurus; test: Induction of calf thymus DNA intercalation assessed as compound-DNA complex formation at 5 x 10^-5mol/L by fluorescence spectroscopic method
# Escherichia coli = test: Antibacterial activity against Escherichia coli JM109 after 24 hrs by two-fold microbroth dilution method; assay type: functional; conditions: JM109, 24 h
# Pichia norvegensis = test: Antifungal activity against Candida mycoderma ATCC 9888 after 24 hrs by two-fold microbroth dilution method; assay type: functional; conditions: ATCC 9888, 24 h
# Bos taurus [3] = species: Bos taurus; test: Induction of calf thymus DNA intercalation assessed as inhibition of neutral red binding to DNA by UV-vis absorption spectra analysis
# Staphylococcus aureus [4] = test: Antibacterial activity against methicillin-resistant Staphylococcus aureus N315 after 24 hrs by two-fold microbroth dilution method; assay type: functional; conditions: N315, 24 h
# Saccharomyces cerevisiae = test: Antifungal activity against Saccharomyces cerevisiae ATCC 9763 after 24 hrs by two-fold microbroth dilution method; assay type: functional; conditions: ATCC 9763, 24 h
# Bos taurus [5] = species: Bos taurus; test: Binding affinity to calf thymus DNA by UV-vis absorption spectra analysis
# Staphylococcus aureus [6] = test: Potency index, ratio of norfloxacin MIC to compound MIC for methicillin-resistant Staphylococcus aureus N315; assay type: functional
# Candida albicans = test: Antifungal activity against Candida albicans ATCC 10231 after 24 hrs by two-fold microbroth dilution method; assay type: functional; conditions: ATCC 10231, 24 h
# [7] = Antibacterial activity against Eberthella typhosa ATCC 14028 after 24 hrs by two-fold microbroth dilution method; assay type: functional; conditions: ATCC 14028, 24 h
# Bacillus = test: Antibacterial activity against Bacillus proteus ATCC 13315 after 24 hrs by two-fold microbroth dilution method; assay type: functional; conditions: ATCC 13315, 24 h
# Aspergillus flavus = test: Antifungal activity against Aspergillus flavus ATCC 204304 after 24 hrs by two-fold microbroth dilution method; assay type: functional; conditions: ATCC 204304, 24 h
# HEp-2 = test: Cytotoxicity against human Hep2 cells assessed as cell viability up to 125 ug/ml after 24 hrs by CCK8 assay relative to control; assay type: functional
# Bos taurus [8] = species: Bos taurus; test: Binding affinity to calf thymus DNA assessed as hypochromic effect by UV-vis absorption spectra analysis
# Pseudomonas aeruginosa = test: Antibacterial activity against Pseudomonas aeruginosa ATCC 27853 after 24 hrs by two-fold microbroth dilution method; assay type: functional; conditions: ATCC 27853, 24 h
# Staphylococcus aureus [9] = test: Potency index, ratio of chloromycin MIC to compound MIC for methicillin-resistant Staphylococcus aureus N315; assay type: functional
compound,measurement,setting,value
CCCCCCCn1c2ccc(-c3csc(N)n3)cc2c2cc(-c3csc(N)n3)ccc21,MIC,Micrococcus luteus,64 µg/mL
same,MIC,Bacillus spizizenii,256 µg/mL
same,MIC,Cyberlindnera jadinii,256 µg/mL
same,MIC,Staphylococcus aureus [1],16 µg/mL
same,Activity,Bos taurus [2],Active
same,MIC,Escherichia coli,128 µg/mL
same,MIC,Pichia norvegensis,64 µg/mL
same,inhibition,Bos taurus [3],Dose-dependent effect
same,MIC,Staphylococcus aureus [4],4 µg/mL
same,MIC,Saccharomyces cerevisiae,128 µg/mL
same,K,Bos taurus [5],2.71 ×10⁴ L/mol
same,Ratio,Staphylococcus aureus [6],2
same,MIC,Candida albicans,128 µg/mL
same,MIC,[7],128 µg/mL
same,MIC,Bacillus,256 µg/mL
same,MIC,Aspergillus flavus,256 µg/mL
same,Activity,HEp-2,85%
same,Activity,Bos taurus [8],Dose-dependent effect
same,MIC,Pseudomonas aeruginosa,128 µg/mL
same,Ratio,Staphylococcus aureus [9],16
